Test results published in patent US8299067B2, “5-demethoxyfumagillol and derivatives thereof” (Versitech Limited, priority 2008, dated 2012).

Legend:
[1] = target: T1, Recombinant human MetAP-2 (Homo sapiens, UniProt P50579); experiment: MetAP-2 enzymatic assay; assay type: biochemical; details: 1 nM purified human MetAP-2, inhibitor incubated at 37° C. for 30 minutes, 1 mM Met-Gly-Met-Met, released methionine
T1 construct: made in house; host or cells: insect cells
Method: (B) MetAP-2 Enzymatic Assay Recombinant human MetAP-2 was expressed and purified from insect cells as previously described (Li, X.; Chang, Y.-H. Biochem. Biophys. Res. Commun. 1996, 227, 152). […] To start the enzymatic reaction, […] was added to a concentration of 1 mM to the reaction mixture. Released methionine was quantified at different time points (0, 2, 3 and 5 min) using the method of Zuo et al (Zuo, S.; Guo, Q.; Ling, C.; Chang, Y-.H. Mol. Gen. Genet. 1995, 246, 247).

[2] = test system: bovine arotic endothelial cells (BAEC); experiment: BAEC proliferation assay; assay type: cell-based; details: tritiated thymidine incorporation, 24 hours drug plus 6 hours label, 0.5% DMSO
Method: (A) BAEC Proliferation Assay
About 2500 bovine arotic endothelial cells (BAEC) in 195 μl of DMEM (Dulbecco's Modified Eagle's Medium) were plated per well of a 96-well plate and grown at 37° C. and 5% CO2. Cells were allowed to recover for 12 hours. 1 μL of 200 times drug stock solution was added to each treatment well. The final vehicle (DMSO) concentration was 0.5%. Vehicle only was used as a control for maximum proliferation. Three wells were treated for each drug concentration. After 24 hours, 1 μCi of tritiated thymidine (diluted in DMEM to a total volume of 10 μL) was added to each well. After additional 6 hours incubation, each well was washed in 180 μl of PBS buffer. 70 μL of trypsin was added to each well. Plates were incubated for 5 minutes at 37° C. Cells were harvested using a Harvester 96 Mach III M (Tomtec) and transferred to glass fiber filters (Wallac). 6 mL of Betaplate Scint (PerkinElmer) was added to each filter in a sealed sample bag. Scintillation counting was done in using a 1450 MicroBeta counter (Wallac). CPM were normalized to vehicle control, averaged across three replicates, and fit to the following equation using GraphPadPrism v4.0: Y=Bottom+(Top-Bottom)/(1+10^((Log EC50−X)*HillSlope)) wherein X is the logarithm of concentration and Y is the response. Y started at Bottom and went to Top with a sigmoid shape. The bottom value was constrained to zero.

T1 sequence (P50579 whole entry): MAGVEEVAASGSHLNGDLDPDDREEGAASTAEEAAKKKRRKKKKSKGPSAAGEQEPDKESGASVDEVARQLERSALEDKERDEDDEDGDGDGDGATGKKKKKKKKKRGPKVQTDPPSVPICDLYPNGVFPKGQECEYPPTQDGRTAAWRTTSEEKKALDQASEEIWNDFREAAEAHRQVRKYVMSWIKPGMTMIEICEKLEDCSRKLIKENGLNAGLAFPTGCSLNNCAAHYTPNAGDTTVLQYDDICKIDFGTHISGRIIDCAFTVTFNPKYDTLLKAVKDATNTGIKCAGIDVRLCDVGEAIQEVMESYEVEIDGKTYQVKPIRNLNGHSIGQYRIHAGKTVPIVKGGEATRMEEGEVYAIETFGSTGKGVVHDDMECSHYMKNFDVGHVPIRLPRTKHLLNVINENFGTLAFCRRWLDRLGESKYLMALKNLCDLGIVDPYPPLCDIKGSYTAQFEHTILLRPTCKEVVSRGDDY

Compound	IC50 [1]	IC50 ([2]; Bos taurus, BAEC, 30 h)	IC50 [2]
CC(C)=CC[C@H]1O[C@]1(C)[C@H]1C[C@H](OC(=O)N[C@@H](Cc2ccccc2)C(=O)NCCCN=[N+]=[N-])CC[C@]12CO2 [Compound 17g]	41000 pM	1410 pM	
CC(C)=CC[C@H]1O[C@]1(C)[C@H]1C[C@H](OC(=O)N[C@H](C(=O)NC2CCCC2)C(C)C)CC[C@]12CO2 [Compound 17o]	28000 pM	35 pM	
CC(C)=CC[C@H]1O[C@]1(C)[C@H]1C[C@H](OC(=O)N2CCN(C)CC2)CC[C@]12CO2 [Compound 17u]		89 pM	
CC(C)=CC[C@H]1O[C@]1(C)[C@H]1C[C@H](OC(=O)N[C@@H](Cc2ccccc2)C(N)=O)CC[C@]12CO2 [Compound 17d]	56000 pM	67 pM	
CC(C)=CC[C@H]1O[C@]1(C)[C@H]1C[C@H](OC(=O)N[C@H](C(N)=O)C(C)C)CC[C@]12CO2 [Compound 17b]	50000 pM	110 pM	
CC(C)=CC[C@H]1O[C@]1(C)[C@H]1C[C@H](OC(=O)N[C@@H](Cc2ccccc2)C(=O)N2CCN(Cc3ccc(F)cc3)CC2)CC[C@]12CO2 [Compound 17k]	12000 pM	210 pM	
CC(C)=CC[C@H]1O[C@]1(C)[C@H]1C[C@H](OC(=O)N2CCN(c3ccc(F)cc3)CC2)CC[C@]12CO2 [Compound 17v]		68 pM	
CC(C)=CC[C@H]1O[C@]1(C)[C@H]1C[C@H](OC(=O)N[C@H](Cc2ccccc2)C(N)=O)CC[C@]12CO2 [Compound 17c]	16000 pM	39 pM	
CC(C)=CC[C@H]1O[C@]1(C)[C@H]1C[C@H](OC(=O)N[C@H](C(=O)NC2CC2)C(C)C)CC[C@]12CO2 [Compound 17n]	19000 pM	31 pM	
CC(C)=CC[C@H]1O[C@]1(C)[C@H]1C[C@H](OC(=O)N2CCCCC2)CC[C@]12CO2 [Compound 17t]		81 pM	
CC(C)=CC[C@H]1O[C@]1(C)[C@H]1C[C@H](OC(=O)N[C@H](CC(C)C)C(N)=O)CC[C@]12CO2 [Compound 17f]	39000 pM	92 pM	
C#CCNC(=O)[C@@H](Cc1ccccc1)NC(=O)O[C@@H]1CC[C@]2(CO2)[C@@H]([C@@]2(C)O[C@@H]2CC=C(C)C)C1 [Compound 17l]	21000 pM	51 pM	
CC(C)=CC[C@H]1O[C@]1(C)[C@H]1C[C@H](OC(=O)N2CCCC2)CC[C@]12CO2 [Compound 17s]		40 pM	
C=CCN1CCN(C(=O)O[C@@H]2CC[C@]3(CO3)[C@@H]([C@@]3(C)O[C@@H]3CC=C(C)C)C2)CC1 [Compound 17x]		47 pM	
CC(C)=CC[C@H]1O[C@]1(C)[C@H]1C[C@H](OC(=O)N2CCN(CC3CCCCC3)CC2)CC[C@]12CO2 [Compound 17w]		74 pM	
CC(C)=CC[C@H]1O[C@]1(C)[C@H]1C[C@H](OC(=O)N[C@@H](C(N)=O)c2ccccc2)CC[C@]12CO2 [Compound 17e]	42000 pM	85 pM	
CC(C)=CC[C@H]1O[C@]1(C)[C@H]1C[C@H](OC(=O)N2CCOCC2)CC[C@]12CO2 [Compound 17z]		48 pM	
CC(C)=CC[C@H]1O[C@]1(C)[C@H]1C[C@H](OC(=O)N[C@@H](Cc2ccccc2)C(=O)NC2CC2)CC[C@]12CO2 [Compound 17j]	41000 pM	27 pM	
CO[C@@H]1[C@H](O)CC[C@]2(CO2)[C@H]1[C@@]1(C)O[C@@H]1CC=C(C)C [Fumagillol]	909000 pM		2040 pM
COc1ccc(CNC(=O)[C@H](Cc2ccccc2)NC(=O)O[C@@H]2CC[C@]3(CO3)[C@@H]([C@@]3(C)O[C@@H]3CC=C(C)C)C2)cc1 [Compound 17m]	11000 pM	190 pM	
CC(C)=CC[C@H]1O[C@]1(C)[C@H]1C[C@H](OC(=O)NN2CCCCC2)CC[C@]12CO2 [Compound 17ab]		40 pM	
CC(C)=CC[C@H]1O[C@]1(C)[C@H]1C[C@H](OC(=O)N2CCN(c3ccc([N+](=O)[O-])cc3)CC2)CC[C@]12CO2 [Compound 17q]	26000 pM	20 pM	
CC(C)=CC[C@H]1O[C@]1(C)[C@H]1C[C@H](OC(=O)N[C@@H](C(N)=O)C(C)C)CC[C@]12CO2 [Compound 17a]	29000 pM	210 pM	
CC(C)=CC[C@H]1O[C@]1(C)[C@H]1C[C@H](OC(=O)Nc2nccs2)CC[C@]12CO2 [Compound 17ac]		38 pM	
CC(C)=CC[C@H]1O[C@]1(C)[C@H]1C[C@H](OC(=O)N[C@@H](Cc2ccccc2)C(=O)N2CCOCC2)CC[C@]12CO2 [Compound 17h]	44000 pM	79 pM	
CC(C)=CC[C@H]1O[C@]1(C)[C@H]1C[C@H](OC(=O)N2CCC2)CC[C@]12CO2 [Compound 17r]		38 pM	
CC(C)=CCC1OC1(C)C1CC(O)CCC12CO2 (stereo not shown) [5-Demethoxyfumagillol, 5-demethoxyfumagillol]	975000 pM		280 pM
COC(=O)[C@@H](NC(=O)O[C@@H]1CC[C@]2(CO2)[C@@H]([C@@]2(C)O[C@@H]2CC=C(C)C)C1)C(C)C [Compound 17p]	27000 pM	62 pM	
C=CCNC(=O)[C@H](Cc1ccccc1)NC(=O)O[C@@H]1CC[C@]2(CO2)[C@@H]([C@@]2(C)O[C@@H]2CC=C(C)C)C1 [Compound 17i]	47000 pM	59 pM	
CC(C)=CC[C@H]1O[C@]1(C)[C@H]1C[C@H](OC(=O)N2CCN(C3CCCC3)CC2)CC[C@]12CO2 [Compound 17y]		31 pM	
